Assays:
VIOTR [1] = experiment: Post-emergence herbicidal action against VIOTR; format: in vivo, Viola tricolor; conditions: Viola tricolor, 504 h
Summary of the method: (§1)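 Foliar application at one-leaf stage of formulated test compounds, aqueous spray at 600–800 l/ha with 0.2% wetting agent. Greenhouse, optimal conditions, ~3 weeks; damage scored visually in % relative to untreated plants.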

SETVI [2] = experiment: Pre-emergence herbicidal action against SETVI; format: in vivo, Setaria viridis; conditions: Setaria viridis, 504 h; for pest or weed control at 80 g/ha: dosage 80 g/ha; for pest or weed control at 320 g/ha: dosage 320 g/ha
Summary of the method: (§2)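 Greenhouse pots of sandy loam held seeds covered with soil, onto which the compound was applied before emergence. An aqueous suspension or emulsion of WP or EC was used at 600 to 800 l/ha with 0.2% wetting agent. Percent damage was judged visually at 3 weeks.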

HORMU [3] = experiment: Pre-emergence herbicidal action against HORMU; format: in vivo, Hordeum murinum; conditions: Hordeum murinum, 504 h, pre-emergence
Summary of the method: as §2

AMARE [4] = experiment: Post-emergence herbicidal action against AMARE; format: in vivo, Amaranthus retroflexus; conditions: Amaranthus retroflexus, 504 h, visual assessment about 3 weeks after treatment, 100% = plants have died, 0% = like control plants
Summary of the method: as §1

HORMU [5] = experiment: Post-emergence herbicidal action against HORMU; format: in vivo, Hordeum murinum; conditions: Hordeum murinum, 504 h; for pest or weed control at 20 g/ha: dosage 20 g/ha; for pest or weed control at 80 g/ha: dosage 80 g/ha
Summary of the method: as §1

ABUTH [6] = experiment: Post-emergence herbicidal action against ABUTH; format: in vivo, Abutilon theophrasti; conditions: Abutilon theophrasti, 504 h, visual assessment about 3 weeks after treatment vs untreated controls; for pest or weed control at 5 g/ha: dosage 5 g/ha; for pest or weed control at 20 g/ha: dosage 20 g/ha; for pest or weed control at 80 g/ha: dosage 80 g/ha
Summary of the method: as §1

LOLRI [7] = experiment: Pre-emergence herbicidal action against LOLRI; format: in vivo, Lolium rigidum; conditions: Lolium rigidum, 504 h, 320 g/ha
Summary of the method: as §2

LOLRI [8] = experiment: Post-emergence herbicidal action against LOLRI; format: in vivo, Lolium rigidum; conditions: Lolium rigidum, 504 h; for pest or weed control at 80 g/ha: dosage 80 g/ha
Summary of the method: as §1

POLCO [9] = experiment: Pre-emergence herbicidal action against POLCO; format: in vivo, Polygonum convolvulus; conditions: Fallopia convolvulus, 504 h; for pest or weed control at 320 g/ha: dosage 320 g/ha
Summary of the method: as §2

ALOMY [10] = experiment: Post-emergence herbicidal action against ALOMY; format: in vivo, Alopecurus myosuroides; conditions: Alopecurus myosuroides, 504 h, visual assessment about 3 weeks after treatment vs untreated controls; for pest or weed control at 20 g/ha: dosage 20 g/ha; for pest or weed control at 80 g/ha: dosage 80 g/ha
Summary of the method: as §1

ECHCG [11] = experiment: Pre-emergence herbicidal action against ECHCG; format: in vivo, Echinochloa crus-galli; conditions: Echinochloa crus-galli, 504 h
Summary of the method: as §2

VERPE [12] = experiment: Post-emergence herbicidal action against VERPE; format: in vivo, Veronica persica; conditions: Veronica persica, 504 h
Summary of the method: as §1

POLCO [13] = experiment: Post-emergence herbicidal action against POLCO; format: in vivo, Polygonum convolvulus; conditions: Fallopia convolvulus, 504 h, dosage 80 g/ha
Summary of the method: as §1

ABUTH [14] = experiment: Pre-emergence herbicidal action against ABUTH; format: in vivo, Abutilon theophrasti; conditions: Abutilon theophrasti, 504 h; for pest or weed control at 80 g/ha: scored visually after 3 weeks vs untreated controls (100% = plants have died, 0% = like control plants); for pest or weed control at 320 g/ha: Dosage: 320 g/ha, scored visually after 3 weeks; for pest or weed control at 320 g/ha / pest or weed control at 20 g/ha: 100% = plants have died, 0% = like control plants; for pest or weed control at 20 g/ha: dosage 20 g/ha, scored visually after 3 weeks vs untreated controls, read-out: Pre-emergence action against ABUTH (herbicidal activity in percent)
Summary of the method: as §2

AMARE [15] = experiment: Pre-emergence herbicidal action against AMARE; format: in vivo, Amaranthus retroflexus; conditions: Amaranthus retroflexus, 504 h, 100% = plants have died, 0% = like control plants; for pest or weed control at 20 g/ha / pest or weed control at 80 g/ha: scored visually after 3 weeks vs untreated controls; for pest or weed control at 320 g/ha: scored visually after 3 weeks
Summary of the method: as §2

AVEFA = experiment: Pre-emergence herbicidal action against AVEFA; format: in vivo, Avena fatua; conditions: Avena fatua, 504 h, pre-emergence
Summary of the method: as §2

ALOMY [16] = experiment: Pre-emergence herbicidal action against ALOMY; format: in vivo, Alopecurus myosuroides; conditions: Alopecurus myosuroides, 504 h, pre-emergence; for pest or weed control at 80 g/ha: scored visually after 3 weeks vs untreated controls (100% = plants have died, 0% = like control plants)
Summary of the method: as §2

SETVI [17] = experiment: Post-emergence herbicidal action against SETVI; format: in vivo, Setaria viridis; conditions: Setaria viridis, 504 h; for pest or weed control at 5 g/ha: dosage 5 g/ha; for pest or weed control at 20 g/ha: dosage 20 g/ha; for pest or weed control at 80 g/ha: dosage 80 g/ha
Summary of the method: as §1

VIOTR [18] = experiment: Pre-emergence herbicidal action against VIOTR; format: in vivo, Viola tricolor; conditions: Viola tricolor, 504 h; for pest or weed control at 80 g/ha: dosage 80 g/ha; for pest or weed control at 320 g/ha: dosage 320 g/ha
Summary of the method: as §2

STEME = experiment: Pre-emergence herbicidal action against STEME; format: in vivo, Stellaria media; conditions: Stellaria media, 504 h; for pest or weed control at 20 g/ha: dosage 20 g/ha; for pest or weed control at 80 g/ha: dosage 80 g/ha; for pest or weed control at 320 g/ha: dosage 320 g/ha
Summary of the method: as §2

VERPE [19] = experiment: Pre-emergence herbicidal action against VERPE; format: in vivo, Veronica persica; conditions: Veronica persica, 504 h, dosage 320 g/ha
Summary of the method: as §2

ECHCG [20] = experiment: Post-emergence herbicidal action against ECHCG; format: in vivo, Echinochloa crus-galli; conditions: Echinochloa crus-galli, 504 h; for pest or weed control at 20 g/ha: dosage 20 g/ha; for pest or weed control at 80 g/ha: dosage 80 g/ha
Summary of the method: as §1

[21] = scored visually after 3 weeks, 100% = plants have died, 0% = like control plants
[22] = 20 g/ha, scored visually after 3 weeks, 100% = plants have died, 0% = like control plants

CNC(=O)c1c(C(F)(F)F)ccc(C(=O)Nc2nnc(C)o2)c1Cl [Example 6-116]
90%: pest or weed control at 80 g/ha (HORMU [3]) | pest or weed control at 20 g/ha (HORMU [5]) | pest or weed control at 5 g/ha (ABUTH [6]) | pest or weed control at 80 g/ha (LOLRI [8]) | pest or weed control at 320 g/ha (POLCO [9]) | pest or weed control at 80 g/ha (VERPE [12]) | pest or weed control at 20 g/ha (STEME)
80%: pest or weed control at 20 g/ha (VIOTR [1]) | pest or weed control at 20 g/ha (ALOMY [10]) | pest or weed control at 80 g/ha (POLCO [13]) | pest or weed control at 320 g/ha (VERPE [19])
100%: pest or weed control at 80 g/ha (VIOTR [1]) | pest or weed control at 80 g/ha (SETVI [2]) | pest or weed control at 320 g/ha (SETVI [2]) | pest or weed control at 320 g/ha (HORMU [3]) | pest or weed control at 20 g/ha (AMARE [4]) | pest or weed control at 80 g/ha (AMARE [4]) | pest or weed control at 80 g/ha (HORMU [5]) | pest or weed control at 20 g/ha (ABUTH [6]) | pest or weed control at 80 g/ha (ABUTH [6]) | pest or weed control at 320 g/ha (LOLRI [7]) | pest or weed control at 80 g/ha (ALOMY [10]) | pest or weed control at 80 g/ha (ECHCG [11]) | pest or weed control at 320 g/ha (ECHCG [11]) | pest or weed control at 80 g/ha (ABUTH [14]) | pest or weed control at 320 g/ha (ABUTH [14]) | pest or weed control at 20 g/ha (ABUTH [14]) | pest or weed control at 20 g/ha (AMARE [15]) | pest or weed control at 80 g/ha (AMARE [15]) | pest or weed control at 320 g/ha (AMARE [15]) | pest or weed control at 80 g/ha (AVEFA) | pest or weed control at 320 g/ha (AVEFA; [21]) | pest or weed control at 80 g/ha (ALOMY [16]) | pest or weed control at 320 g/ha (ALOMY [16]; [21]) | pest or weed control at 5 g/ha (SETVI [17]) | pest or weed control at 20 g/ha (SETVI [17]) | pest or weed control at 80 g/ha (SETVI [17]) | pest or weed control at 80 g/ha (VIOTR [18]) | pest or weed control at 320 g/ha (VIOTR [18]) | pest or weed control at 80 g/ha (STEME) | pest or weed control at 320 g/ha (STEME) | pest or weed control at 20 g/ha (ECHCG [20]) | pest or weed control at 80 g/ha (ECHCG [20])

CCn1nnnc1NC(=O)c1ccc(C(F)(F)F)c(C(=O)NC)c1Cl [Example 2-129]
80%: pest or weed control at 5 g/ha (VIOTR [1]; 5 g/ha) | pest or weed control at 5 g/ha (HORMU [5]; dosage 5 g/ha) | pest or weed control at 20 g/ha (VERPE [12]; 20 g/ha) | pest or weed control at 20 g/ha (STEME) | pest or weed control at 80 g/ha (STEME)
90%: pest or weed control at 80 g/ha (HORMU [3]) | pest or weed control at 20 g/ha (HORMU [5]) | pest or weed control at 80 g/ha (VERPE [12]) | pest or weed control at 20 g/ha (ALOMY [16]; [22])
100%: pest or weed control at 20 g/ha (VIOTR [1]) | pest or weed control at 80 g/ha (VIOTR [1]) | pest or weed control at 20 g/ha (SETVI [2]; dosage 20 g/ha) | pest or weed control at 80 g/ha (SETVI [2]) | pest or weed control at 320 g/ha (SETVI [2]) | pest or weed control at 320 g/ha (HORMU [3]) | pest or weed control at 20 g/ha (AMARE [4]) | pest or weed control at 80 g/ha (AMARE [4]) | pest or weed control at 80 g/ha (HORMU [5]) | pest or weed control at 5 g/ha (ABUTH [6]) | pest or weed control at 20 g/ha (ABUTH [6]) | pest or weed control at 80 g/ha (ABUTH [6]) | pest or weed control at 320 g/ha (LOLRI [7]) | pest or weed control at 20 g/ha (LOLRI [8]; dosage 20 g/ha) | pest or weed control at 80 g/ha (LOLRI [8]) | pest or weed control at 20 g/ha (POLCO [9]; dosage 20 g/ha) | pest or weed control at 80 g/ha (POLCO [9]; dosage 80 g/ha) | pest or weed control at 320 g/ha (POLCO [9]) | pest or weed control at 5 g/ha (ALOMY [10]; dosage 5 g/ha) | pest or weed control at 20 g/ha (ALOMY [10]) | pest or weed control at 80 g/ha (ALOMY [10]) | pest or weed control at 80 g/ha (ECHCG [11]) | pest or weed control at 320 g/ha (ECHCG [11]) | pest or weed control at 80 g/ha (POLCO [13]) | pest or weed control at 80 g/ha (ABUTH [14]) | pest or weed control at 320 g/ha (ABUTH [14]) | pest or weed control at 20 g/ha (ABUTH [14]) | pest or weed control at 20 g/ha (AMARE [15]) | pest or weed control at 80 g/ha (AMARE [15]) | pest or weed control at 320 g/ha (AMARE [15]) | pest or weed control at 80 g/ha (AVEFA) | pest or weed control at 20 g/ha (AVEFA; [22]) | pest or weed control at 320 g/ha (AVEFA; [21]) | pest or weed control at 80 g/ha (ALOMY [16]) | pest or weed control at 320 g/ha (ALOMY [16]; [21]) | pest or weed control at 5 g/ha (SETVI [17]) | pest or weed control at 20 g/ha (SETVI [17]) | pest or weed control at 80 g/ha (SETVI [17]) | pest or weed control at 20 g/ha (VIOTR [18]; dosage 20 g/ha) | pest or weed control at 80 g/ha (VIOTR [18]) | pest or weed control at 320 g/ha (VIOTR [18]) | pest or weed control at 320 g/ha (STEME) | pest or weed control at 320 g/ha (VERPE [19]) | pest or weed control at 20 g/ha (ECHCG [20]) | pest or weed control at 80 g/ha (ECHCG [20])

From US12655116B2, “Substituted isophthalic acid diamides” (Bayer Aktiengesellschaft, priority 2020, dated 2026)
